{
  "source": "patent US12558344B2",
  "about": "“Composition for preventing or treating brain-nervous system diseases comprising rita or derivatives thereof” (priority 2019, dated 2026)",
  "key": {"[1]": {"test_system": "adult hippocampal neural stem cells (HCN cells)", "experiment": "Cell death assay (Hoechst 33342/PI) of stress hormone (CORT)-induced death of adult hippocampal neural stem cells", "format": "cell-based, rat", "conditions": "50 nM RITA (3 h pre-treatment, then with 200 μM CORT), 48 hours, FIG. 1", "method": "First, adult hippocampal neural stem cells (HCN cells; hereinafter, referred to as “HCN”) were isolated from an 8-week-old female Sprague-Dawley rat (SD rat). Afterward, the isolated hippocampal neural stem cells were incubated using a serum-free medium containing Dulbecco's modified Eagle's medium (DMEM)/F-12 to which N2 and basic fibroblast growth factor (bFGF; PeproTech) were added in a 37° C. incubator. The cells were subcultured every 3 or 4 days. The subcultured neural stem cells were put into a 96-well plate at 1.5×10^5 cells/ml, 50 nM RITA was treated together with 200 μM corticosterone (CORT), and cell death was confirmed after 48 hours. Before CORT treatment, 50 nM RITA was pre-treated for 3 hours and then treated again along with CORT. For cell death assay, the cells were stained with Hoechst 33342 (Invitrogen) and propidium iodide (PI; Sigma) and photographed by a fluorescence microscope (Axiovert 40 CFL; Carl Zeiss), and the percentage of cell death was calculated by the following cell death (%) equation. Cell death (%)=(the number of PI[red]−positive cells/the number of Hoechst [blue]−positive cells)×100"}, "[2]": {"test_system": "hippocampal neural stem cells", "experiment": "Neural stem cell protection in chronic restraint stress (CRS) mouse, SOX2/Ki67 immunohistochemistry of hippocampus", "format": "in vivo", "conditions": "10 mg/kg intraperitoneally for 10 days, CRS 7 days, FIG. 2", "method": "An 8-week-old male C57BL/6 mouse was subjected to chronic restraint stress (CRS) using a restrainer from 10 AM to 4 PM daily for 7 days. RITA (10 mg/kg) was intraperitoneally injected using a 1-ml syringe at 9:30 AM for 10 days from 3 days before the stress experience. To confirm the number of hippocampal neural stem cells in the RITA-injected mouse, the control and the stress-experiencing mice were anesthetized by injecting the neuro-anesthetic Zoletil and the muscle anesthetic Rompun to isolate brain tissue. Afterward, the brain tissue was frozen with an optimal cutting temperature compound after fixing the brain with 4% paraformaldehyde (PFA). To perform immunohistochemistry, the frozen brain was cut in the coronal plane to a thickness of 40 μm, and then a neural stem cell indicator, SOX2, and a cell proliferation indicator, Ki67 protein, were labeled with Alexa488 or Alexa555 and stained. The number of fluorescence-expressing cells in the hippocampus of the stained brain was detected using a Confocal 780 microscope (Zeiss), and the result is shown in FIG. 2. As a control, oil, which is a medium in which RITA is dissolved, was injected."}, "[3]": {"test_system": "C57BL/6 mouse subjected to chronic restraint stress", "experiment": "Open field test, anxiety-related behavior in CRS mouse", "format": "in vivo", "conditions": "open field test 20 minutes, 10 mg/kg intraperitoneally, FIG. 3", "method": "(§1) An 8-week-old male C57BL/6 mouse was subjected to chronic restraint stress (CRS) using a restrainer from 10 AM to 4 PM daily for 7 days. RITA (10 mg/kg) was intraperitoneally injected using a 1-ml syringe at 9:30 AM for 10 days from 3 days before the stress experience. Specifically, to measure anxiety-related behavior, an open field test was performed. The degree of anxiety was measured by observing a staying rate during a staying time in the middle in a square with a size of 40×40 cm^2 for 20 minutes. In addition, to measure spatial memory ability, a Y-Maze test was performed. The degree of spatial memory ability was measured by measuring the rate (arm alteration) entering each passage while freely moving in a Y-shaped maze space composed of three passages for 6 minutes."}, "[4]": {"test_system": "C57BL/6 mouse subjected to chronic restraint stress", "experiment": "Y-Maze test, spatial memory in CRS mouse", "format": "in vivo", "conditions": "Y-Maze test 6 minutes (arm alteration), 10 mg/kg intraperitoneally, FIG. 4", "method": "as §1"}},
  "data": [
    {"smiles": "OCc1ccc(-c2ccc(-c3ccc(CO)s3)o2)s1", "note": "[RITA, 2,5-bis[5-hydroxymethyl-2-thienyl] furan]", "values": [
      {"measurement": "death of neural stem cells caused by a stress hormone", "setting": "[1]", "value": "inhibits the death of neural stem cells"},
      {"measurement": "number of cells expressing Ki67 (cell proliferation indicator) decreased by stress", "setting": "[2]", "value": "considerably increased compared to the control"},
      {"measurement": "number of cells expressing SOX2 (stem cell indicator) decreased by stress", "setting": "[2]", "value": "considerably increased compared to the control"},
      {"measurement": "anxiety disorder-related behavior caused by stress experience", "setting": "[3]", "value": "prevented"},
      {"measurement": "spatial memory disability caused by stress experience", "setting": "[4]", "value": "prevented"}
    ]}
  ]
}
